Experimental data published in US6890305B2, “Reagent and method for measuring lung function” (Cambridge Isotope Laboratories, priority 2002, dated 2005).

Experiment: 13C-sodium bicarbonate breath test in one asthma patient, pre vs post inhaler medication
Assay type: in vivo, human
Settings: breath test 45 minutes post medication vs pre-medication, advair and albuterol taken together, FIG. 4
Procedure: FIG. 3 exemplifies two such breath curves.
In this embodiment, the slope of the Δ ^13CO2 curve at time points t1 and t2 is calculated according to the following equation: slope={(Δ ^13CO2)2−(Δ ^13CO2)1}/(t2−t1)
As an example, the slope of the curve of FIG. 4 can be measured at the 10 minute time point and the 20 minute time point, to give a variable for determining lung function. […] It can be seen from FIG. 4 that the individual post-medication curve has a steeper slope for the 10 and 20 minute time point interval than prior to the medication, indicating an improved lung function. These specific time values are exemplary only and other time periods or half life of the disappearance curve can be used.
This example describes the monitoring of the reduction in airway resistance in one asthma patient following inhaler medication therapy—advair (fluticasone propionate 100 mcg and salmeterol 50 mcg inhalation powder) and albuterol (racemic (α^1-[(tert-butylamino)methyl]-4-hydroxy-m-xylene-α,α′-diol, commercially available as Ventolin®, Proventil®) a relatively selective beta2-adrenergic bronchodilator.
A breath test was performed at 7 am before the patient ingested any asthma medication. The medication was taken at 8:15 am.

With CC(C)(C)NCC(O)c1ccc(O)c(CO)c1 (racemic) [albuterol] as the compound, how does the “AUC of expired Δ13CO2 breath curve (cumulative ‰×h), post vs pre medication” value read?
The value was “improvement”.

What about the “slope of Δ13CO2 breath curve between 10-20 minutes, post vs pre medication” value of the same compound?
Its value is “possibly the slope (steepening)”.
